Results on five molecules are retold here after US7825096B2, “O6-alkylguanine-DNA alkyltransferase inactivators and beta-glucuronidase cleavable prodrugs” (The United States of America as represented by the …, priority 2004, dated 2010).

Data set [1] is described as follows: Stability (first-order hydrolysis) of prodrugs in aqueous buffers at 37° C., HPLC. The format is physicochemical. The conditions noted are these: for Observed first order rate constant for hydrolysis, kTris: 50 mM Tris-HCl (pH 7.5), 5 mM dithiothreitol, 0.1 mM EDTA; for Observed first order rate constant for hydrolysis, kTris / Observed first order rate constant for hydrolysis, kMOPS / Observed first order rate constant for hydrolysis, kDulbecco: 37° C.; for Observed first order rate constant for hydrolysis, kMOPS: 50 mM morpholinopropane sulfonic acid, pH 7.0, 0.01% NaCl; for Observed first order rate constant for hydrolysis, kPBS: Phosphate buffered saline, pH 7.2, 37° C.; for Observed first order rate constant for hydrolysis, kDulbecco: modified Dulbecco's medium. The method, then: Prodrug purity of the prodrugs was determined by HPLC on a Hewlett-Packard LC 1090 Series II system equipped with a Phenomenex 250×4 mm column (5 μm particle size) eluted isocratically at 1 mL/min with acetonitrile/0.1 M triethylammonium acetate (TEAA), pH 7.0, (3:7). Aliquots (100 μL) from prodrug solutions were withdrawn and diluted with 100 μL of a solution of p-nitrobenzyl alcohol (an internal standard) in acetonitrile/0.1 M TEAA (6:4). UV detection was at 254 and 280 nm. Retention times for 1, 2, O^6-benzylguanine, O^6-benzyl-2′-deoxyguanosine and p-nitrobenzyl alcohol were 5.20, 4.97, 7.13, 7.18 and 8.64 min, respectively. All determinations were carried out in duplicate or triplicate.
The stability of the prodrugs was determined in phosphate buffered saline (pH 7.2) (Life Techologie, Inc), a Tris buffer containing 50 mM Tris-HCl (pH 7.5) (Life Technologies, Inc), 5 mM dithiothreitol and 0.1 mM EDTA, a MOPS buffer (pH 7.0) containing 50 mM morpholinopropane sulfonic acid, […] Dulbecco's medium prepared by combining 400 mL of Dulbecco's medium with 7 mL of 7.5% NanCO3, 4 mL of 15 mM glutamine, 2 mL gentamicin and 40 mL of fetal calf serum. Solutions were incubated at 37° C. and prodrug concentrations were analyzed by HPLC at various times as indicated above.
Rate constants for the first-order disappearance of prodrugs were estimated from semi-log plots of the concentration of prodrug as a function of time. The spontaneous rate of liberation, for example, in aqueous solutions, of the AGT inactivator is much lower than the rate for β-glucuronidase catalyzed liberation, for example, about 10 times less, and preferably 100 times less. The spontaneous rate of liberation of the AGT inactivator from the prodrug is low, e.g., about 0.2 to about 0.5% by weight per hour.

Data set [2] has as its target T1, E. coli β-glucuronidase (Escherichia coli, UniProt P05804).
T1 construct: purchased Sigma type IX-A
Put plainly: Enzymatic hydrolysis of prodrugs by E. coli β-glucuronidase in MOPS buffer. The format is biochemical. Conditions: 0.2 unit/mL E. coli enzyme, FIG. 1B. The method, then:
(§1) The enzymatic hydrolysis of the prodrugs was investigated with both E. coli and bovine liver β-glucuronidase in MOPS buffer at pH 7.0. Prodrugs and p-nitrobenzyl alcohol (HPLC internal standard) were dissolved in the MOPS buffer (pH 7.0) at 37° C. Enzymatic cleavage was initiated by adding 0.2 Fishman units of E. coli β-glucuronidase (Sigma type IX-A) (42.8 units/mg of protein) or 10 Fishman units of bovine liver β-glucuronidase (Sigma type B-10) (10.2 units/mg of protein) to the incubation buffer. Aliquots (100 μL) of the reaction mixture were withdrawn at various times and were mixed with 100 μL of acetonitrile/0.1 M TEAA (6:4) to quench the enzymatic reaction. Prodrug and product concentrations were determined by HPLC. For determination of enzyme kinetic parameters, prodrug solutions at concentrations between 5 and 300 μM were incubated with a fixed amount of enzyme. Aliquots were withdrawn at time intervals varying from 1 to 20 min and the reactions were quenched as described above. Initial reaction velocities were determined at each substrate concentration. Non-linear regression methods were used to determine KM and Vmax values. Data were processed with Prism 3.0 software.

Data set [3] addresses T2, bovine liver β-glucuronidase (Bos taurus, UniProt A3KMY8).
T2 construct: bovine liver β-glucuronidase (Sigma type B-10) (10.2 units/mg of protein); purchased Sigma type B-10; host or cells: bovine liver
T2 sequence (A3KMY8 1-652): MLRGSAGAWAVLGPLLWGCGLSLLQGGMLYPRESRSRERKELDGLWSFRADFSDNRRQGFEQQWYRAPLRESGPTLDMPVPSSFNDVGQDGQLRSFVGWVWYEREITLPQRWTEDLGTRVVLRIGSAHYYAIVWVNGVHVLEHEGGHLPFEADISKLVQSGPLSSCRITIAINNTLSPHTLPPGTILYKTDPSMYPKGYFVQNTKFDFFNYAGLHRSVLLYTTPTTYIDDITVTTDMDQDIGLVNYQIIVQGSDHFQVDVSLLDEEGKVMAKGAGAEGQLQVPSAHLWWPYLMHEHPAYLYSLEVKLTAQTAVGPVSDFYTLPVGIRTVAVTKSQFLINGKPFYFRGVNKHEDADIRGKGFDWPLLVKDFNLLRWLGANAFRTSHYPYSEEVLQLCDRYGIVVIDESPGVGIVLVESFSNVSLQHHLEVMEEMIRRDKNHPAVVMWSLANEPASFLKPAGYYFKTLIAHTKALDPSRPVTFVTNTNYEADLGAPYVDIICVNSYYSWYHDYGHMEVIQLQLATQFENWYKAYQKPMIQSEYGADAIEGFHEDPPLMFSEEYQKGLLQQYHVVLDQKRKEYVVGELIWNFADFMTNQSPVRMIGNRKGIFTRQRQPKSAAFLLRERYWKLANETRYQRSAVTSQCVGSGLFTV
Put plainly: Enzymatic hydrolysis of prodrugs by bovine liver β-glucuronidase in MOPS buffer. The format is biochemical. Conditions: 10 units/mL bovine liver enzyme, FIG. 1A. The method, then: as §1

Data set [4] deals with T3, human O^6-alkylguanine-DNA alkyltransferase (Homo sapiens, UniProt P16455).
T3 sequence (P16455 1-207): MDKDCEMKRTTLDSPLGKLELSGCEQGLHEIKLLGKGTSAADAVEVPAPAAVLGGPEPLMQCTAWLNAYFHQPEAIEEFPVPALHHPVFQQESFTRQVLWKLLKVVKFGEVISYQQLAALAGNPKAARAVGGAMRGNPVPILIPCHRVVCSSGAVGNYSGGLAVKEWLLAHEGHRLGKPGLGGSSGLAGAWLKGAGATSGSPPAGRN
Put plainly: Inactivation of purified recombinant human alkyltransferase (AGT) in vitro, [3H]-methylated DNA substrate. The format is biochemical. The conditions noted are these: for IC50: absence of β-glucuronidase, 30 min at 37° C., FIG. 2, read-out: inactivation of human AGT: concentration up to which inactive; for alkyltransferase inactivation in the presence of bovine liver β-glucuronidase: incubation with bovine liver β-glucuronidase (20 or 200 units/mL) for 30 min, FIG. 2A/2B. The method, then:
Purified recombinant human alkyltransferase was incubated with different concentrations of prodrugs in 0.5 mL of reaction buffer (50 mM Tris-HCl, pH 7.6, 0.1 mM EDTA, 5.0 mM dithiothreitol) containing 50 μg of hemocyanin for 30 min at 37° C. For experiments involving β-glucuronidase, the bovine liver protein, prodrugs and alkyltransferase were incubated together in the above hemocyanin-containing buffer for 30 min at 37° C. The remaining alkyltransferase activity was determined after incubation with a [^3H]-methylated calf thymus DNA substrate for 30 min at 37° C. by measuring the [^3H]-methylated methylated protein formed, which was collected on nitrocellulose filters. The results were expressed as the percentage of the alkyltransferase activity remaining.

Data set [5] deals with HT29 cells. Put plainly: HT29 cell killing by BCNU after drug pretreatment, colony-forming assay. The format is cell-based. Conditions: for HT29 cell killing by BCNU after prodrug without β-glucuronidase: 5 hr prodrug, no β-glucuronidase, then two-hour 40 μM BCNU; for HT29 cell killing by BCNU after prodrug without β-glucuronidase / HT29 cell killing by BCNU after prodrug with β-glucuronidase: FIG. 3; for HT29 cell killing by BCNU after prodrug with β-glucuronidase: bovine liver β-glucuronidase 20 units/mL of medium, 7 or 14 hr (1), 14 hr (2), then 2 hr 40 μM BCNU. How it is done: HT29 cells were grown in RPMI 1640 medium in the presence of 10% fetal bovine serum. The effect of alkyltransferase inactivators on the sensitivity of cells to BCNU was determined using a colony-forming assay. Cells were plated at a density of 10^6 in 25 cm^2 flasks and 24 h later were incubated with different concentrations of prodrugs for the time indicated before exposure to 40 μM BCNU for 2 hr. For experiments involving β-glucuronidase, the bovine liver protein was added to the cell cultures at 20 units/mL of medium and incubated along with the prodrug. BCNU was dissolved in absolute ethanol at a concentration of 8 mM. It was diluted with the same volume of ice-cold phosphate-buffered saline, and was immediately administered to cells. After two hr, the medium was replaced with fresh medium and the cells were left to grow for an additional 16-18 h. The cells were then replated at densities of 250 cells per 25 cm^2 flask and grown for 8 days until discrete colonies had formed. The colonies were washed with 0.9% saline solution, stained with 0.5% crystal violet in ethanol, and counted. The plating efficiency of cells not treated with drugs was about 50%.

Data set [6] is described as follows: Solubility in water. The format is physicochemical. Conditions: for solubility: water.
Data set [7] in a line: Stability under acidic conditions. The format is physicochemical.

Converted amounts (≈) assume the structure as drawn. Structures can show the parent of a compound that is named as a salt. A value given as a limit tells only on which side of the number the result lay.

T1 sequence (P05804 whole entry): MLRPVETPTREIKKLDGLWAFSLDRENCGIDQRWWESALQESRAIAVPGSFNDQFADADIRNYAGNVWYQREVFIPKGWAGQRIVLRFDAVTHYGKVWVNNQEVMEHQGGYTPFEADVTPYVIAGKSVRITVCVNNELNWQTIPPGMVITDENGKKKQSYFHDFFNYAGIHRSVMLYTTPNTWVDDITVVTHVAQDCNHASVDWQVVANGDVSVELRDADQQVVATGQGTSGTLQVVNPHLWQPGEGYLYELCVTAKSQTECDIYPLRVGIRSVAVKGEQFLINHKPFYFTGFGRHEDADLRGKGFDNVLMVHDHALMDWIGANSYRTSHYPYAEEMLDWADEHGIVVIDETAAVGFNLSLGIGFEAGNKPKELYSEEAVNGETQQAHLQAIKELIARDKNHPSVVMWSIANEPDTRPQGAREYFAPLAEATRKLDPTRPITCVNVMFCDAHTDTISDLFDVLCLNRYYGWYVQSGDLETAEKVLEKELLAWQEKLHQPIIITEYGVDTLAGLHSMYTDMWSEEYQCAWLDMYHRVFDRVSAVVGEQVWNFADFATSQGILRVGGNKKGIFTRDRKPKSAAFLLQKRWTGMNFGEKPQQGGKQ

With `O=C(Nc1nc(OCc2ccccc2)c2nc[nH]c2n1)OCc1ccc(O[C@@H]2O[C@H](C(=O)O)[C@@H](O)[C@H](O)[C@H]2O)c([N+](=O)[O-])c1` [Prodrug 1, O^6-Benzyl-N-[[[[4′-[(-β-D-glucopyranuronosyl)oxy]-3′-nitrophenyl]methyl]oxy]carbonyl]guanine, monosodium salt], in data set [1], the Observed first order rate constant for hydrolysis, kTris was determined as 4.06e-06 min⁻¹; the Observed first order rate constant for hydrolysis, kMOPS amounted to 3.77e-06 min⁻¹; the Observed first order rate constant for hydrolysis, kPBS came to 3.86e-06 min⁻¹; the Observed first order rate constant for hydrolysis, kDulbecco is 4.29e-06 min⁻¹. Also, in data set [1] (aqueous buffers of Table 1), the “average half-time for decomposition” value is ~100 days. Moreover, the “hydrolysis by the E. coli enzyme (prodrug disappearance)” value in data set [2] is on record as “rapid disappearance”. For the same molecule, in data set [3], the “hydrolysis by the bovine liver enzyme (prodrug disappearance)” value is on record as “rapid disappearance”. In data set [4], the IC50 is > 50 µM and the “alkyltransferase inactivation in the presence of bovine liver β-glucuronidase” value is “efficient alkyltransferase inactivation”. Also, in data set [5], the “HT29 cell killing by BCNU after prodrug without β-glucuronidase” value is reported as “quite resistant to killing” and the “HT29 cell killing by BCNU after prodrug with β-glucuronidase” value is “greatly sensitized to killing by BCNU”.
A word on the solubility: it is the dissolved amount per volume that the medium holds. Turning to `NCc1ccc(COc2nc(N)nc3[nH]cnc23)cc1` [Compound 24, O^6-(4-Aminomethylbenzyl)guanine], the “ED90 for HT29 cell killing by 40 μM BCNU following a 2-hr incubation with drug” value (shortened to “ED90 for HT29 cell killing”) in data set [5] is >>5 μM. Moreover, the solubility in data set [6] is > 100 mg/mL.
On to `NCc1cccc(COc2nc(N)nc3nc[nH]c23)c1` [Compound 25, O^6-(3-Aminomethylbenzyl)guanine], for which, in data set [5], the “ED90 for HT29 cell killing” value was found to be 1.75 µM. Also, the “fold more water soluble than O^6-benzylguanine” value in data set [6] (relative to O^6-benzylguanine) was “at least 700 ×”. The solubility in data set [6] is > 100 mg/mL. In data set [7], the “stability under acidic conditions compared with O^6-benzylguanine” value is “far more stable”.
As for `Nc1nc(OCc2ccccc2)c2nc[nH]c2n1` [O^6-benzylguanine, reference compound], the “ED90 for HT29 cell killing” value in data set [5] turned out to be 0.75 µM. In data set [6], this molecule gave a solubility of 0.1 mg/mL (≈ 0.415 mM).
In the case of `O=C(Nc1nc(OCc2ccccc2)c2ncn([C@H]3C[C@H](O)[C@@H](CO)O3)c2n1)OCc1ccc(O[C@@H]2O[C@H](C(=O)O)[C@@H](O)[C@H](O)[C@H]2O)c([N+](=O)[O-])c1` [Prodrug 2, O^6-Benzyl-N^2-[[[[4″-[(β-D-glucopyranuronosyl)oxy]-3″-nitrophenyl]methyl]oxy]carbonyl]-2′-deoxyguanosine, monosodium salt], in data set [1], the Observed first order rate constant for hydrolysis, kTris stood at 1.55e-07 min⁻¹; the Observed first order rate constant for hydrolysis, kMOPS was found to be 1.88e-07 min⁻¹; the Observed first order rate constant for hydrolysis, kPBS came to 6.46e-07 min⁻¹; the Observed first order rate constant for hydrolysis, kDulbecco is 4.68e-07 min⁻¹. In addition, the “hydrolysis by the E. coli enzyme (prodrug disappearance)” value in data set [2] was “rapid disappearance”. The “hydrolysis by the bovine liver enzyme (prodrug disappearance)” value in data set [3] is listed as “rapid disappearance”. Moreover, in data set [4], the IC50 is > 50 µM and the “alkyltransferase inactivation in the presence of bovine liver β-glucuronidase” value is recorded as “efficient alkyltransferase inactivation”. In data set [5], the “HT29 cell killing by BCNU after prodrug without β-glucuronidase” value is “quite resistant to killing” and the “HT29 cell killing by BCNU after prodrug with β-glucuronidase” value is reported as “much greater cell killing by BCNU”.
